Test system: XPD (Rad3) helicase
Assay: single-molecule TIRF, Cy3 quenching by FeS cluster
Format: biochemical, Ferroplasma acidarmanus
Details: 3'-Cy3 ssDNA, 600 pM XPD, no RPA; 50 mM Tris-HCl pH 7.5, 3 mM MgCl2, 25 °C

Km: 2800 ± 1000 nM
Structure (SMILES): Nc1ncnc2c1ncn2[C@@H]1O[C@H](COP(=O)(O)OP(=O)(O)OP(=O)(O)O)[C@@H](O)[C@H]1O [ATP]

— PMC2776038 (Molecular cell, 2009)
